From patent EP2545917B1, “NOVEL EP4 AGONIST” (Kaken Pharmaceutical Co., Ltd., priority 2010, dated 2011)

Tests used:
[1] = In vitro metabolic stability: β-oxidation reaction in rat liver mitochondria fraction; type: in vitro ADME; details: parent compound after NADPH-independent β-oxidation reaction, 37°C, 30 min, tested as isomer mixtures, average ± SD of 3 experiments
Description: A mixture of the compound F and compound J of the present invention described in Table 1 (F:J = 52:41, synthesized in Example 14), and a mixture of compounds wherein the tetrazole groups at C-1 of compound F and compound J are respectively substituted by carboxylic acid (referred to as carboxylate form, F:J = 54:34, synthesized in Example 15) were tested.
First, a mitochondria fraction was prepared from the rat liver according to the following Reference A. Then, in reference to the method of […] et al. described in the following References B and C, an NADPH-independent β oxidation reaction was studied. The reaction was carried out at 37°C for 30 min, and stopped with a methanol solution containing a suitable internal standard substance. Each compound was quantified by the internal standard method using a high performance liquid chromatography mass spectrometry apparatus (LC-MS/MS). The compound residual ratio after metabolic reaction of compounds F, J and each carboxylate form thereof in rat mitochondria fraction is shown in the following Table 2 in average ± standard deviation of 3 experiments. Table 2 Residual Ratio of Parent Compound after β-Oxidation Reaction

[2] = Plasma pharmacokinetics after intravenous administration to rats; type: in vivo; details: male, rat
Description: To verify the in vivo metabolic stability of the compound of the present invention, plasma pharmacokinetics was evaluated after intravenous administration to rats. Male rats (6 weeks old, body weight 160 - 180 g) were acclimated for 1 week, and the animals diagnosed healthy were used. A mixture of compound F and compound J of the present invention described in Table 1 (F:J = 52:41), and a mixture of carboxylate forms of compound F and compound J (F:J = 54:34), and compound F (synthesized in Example 9) were dissolved in a small amount of ethanol and physiological saline was added to prepare test compound solutions. The test compound solutions were instantaneously administered intravenously at 1 mL/kg from the femoral vein of non-fasting rats under light ether anesthesia. Venous blood was drawn from the tail vein 5, 15, 30, 45, 60, 90 and 120 min after administration. The blood was mixed with heparin and centrifuged (3000 rpm, 4°C, 15 min) to obtain plasma. The plasma compound concentration was determined by the internal standard method using LC-MS/MS. The determination range by this method was from 0.1 to 100 ng/mL. The compound concentrations obtained from each rat were analyzed in a model-independent way using a pharmacokinetics analysis software WinNonlin (ver.3.3), and average ± standard deviation of 3 animals for each group was obtained.

Human EP1 = biological target: T1, Human EP1 (Homo sapiens, UniProt P34995); experiment: Receptor affinity, tritium-labeled PGE2 binding to membranes of transfected COS-7 cells
T1 construct: expressed in transfected cells; host or cells: COS-7
T1 sequence (P34995 1-402): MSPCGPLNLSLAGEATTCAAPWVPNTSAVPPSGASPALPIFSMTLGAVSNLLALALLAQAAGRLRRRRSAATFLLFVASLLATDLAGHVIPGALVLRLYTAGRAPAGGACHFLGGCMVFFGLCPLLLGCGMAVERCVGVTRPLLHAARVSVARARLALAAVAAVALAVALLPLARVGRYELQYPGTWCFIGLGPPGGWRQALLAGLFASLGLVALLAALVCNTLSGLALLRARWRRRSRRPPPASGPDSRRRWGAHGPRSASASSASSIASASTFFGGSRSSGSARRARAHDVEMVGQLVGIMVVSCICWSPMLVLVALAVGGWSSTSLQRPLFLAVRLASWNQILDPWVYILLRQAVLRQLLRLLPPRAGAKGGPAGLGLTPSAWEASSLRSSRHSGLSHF
Description: (§1) PG receptor affinity of compound F and compound J of the present invention was evaluated. Compound F used was one synthesized in Example 9, and compound J was prepared by separating and purifying the compound synthesized in Example 14 with a column (the same preparations were used in the following Examples). COS-7 cells were transfected with the genes of mouse EP4, human EP1-4 or human IP to overexpress the receptor and then the cell membranes were collected. As a labeled ligand, tritium-labeled PGE2 was used for EPs; tritium-labeled iloprost, for IP. The dissociation constant Kd value was obtained and inhibition constant Ki value of each test compound was determined in a conventional method. As a reference control, PGE2 was used for EPs; beraprost sodium (BPS), for IP.

Human EP2 = biological target: T2, Human EP2 (Homo sapiens, UniProt P43116); experiment: as above
T2 construct: expressed in transfected cells; host or cells: COS-7
Description: as §1, with “As a labeled ligand, tritium-labeled PGE2 was used for EPs; tritium-labeled iloprost, for IP.” left out, “method.” for “method. As a reference control, PGE2 was used for EPs; beraprost sodium (BPS), for IP.”

Mouse EP4 = biological target: T3, Mouse EP4 (Mus musculus, UniProt P32240); experiment: as above
T3 construct: expressed in transfected cells; host or cells: COS-7
Description: as §1, with “As a labeled ligand, tritium-labeled PGE2 was used for EPs; tritium-labeled iloprost, for IP.” left out, “method.” for “method. As a reference control, PGE2 was used for EPs; beraprost sodium (BPS), for IP.”

Human EP3 = biological target: T4, Human EP3 (Homo sapiens, UniProt P43115); experiment: as above
T4 construct: expressed in transfected cells; host or cells: COS-7
T4 sequence (P43115 1-390): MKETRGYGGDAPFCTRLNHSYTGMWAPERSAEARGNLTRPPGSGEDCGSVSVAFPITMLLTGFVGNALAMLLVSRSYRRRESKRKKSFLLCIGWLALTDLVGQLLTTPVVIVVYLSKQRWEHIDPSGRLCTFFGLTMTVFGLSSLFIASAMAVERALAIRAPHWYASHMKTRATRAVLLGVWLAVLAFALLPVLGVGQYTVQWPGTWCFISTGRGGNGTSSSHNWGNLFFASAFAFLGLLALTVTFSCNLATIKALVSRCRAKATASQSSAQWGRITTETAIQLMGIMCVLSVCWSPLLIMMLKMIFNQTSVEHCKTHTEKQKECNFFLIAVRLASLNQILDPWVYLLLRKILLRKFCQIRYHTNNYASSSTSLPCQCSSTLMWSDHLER
Description: (§2) COS-7 cells were transfected with the genes of mouse EP4, human EP1-4 or human IP to overexpress the receptor and then the cell membranes were collected. […] The dissociation constant Kd value was obtained and inhibition constant Ki value of each test compound was determined in a conventional method.

Human EP4 [3] = biological target: T5, Human EP4 (Homo sapiens, UniProt P35408); experiment: as above
T5 construct: expressed in transfected cells; host or cells: COS-7
Description: as §2

Human IP = biological target: T6, Human IP (Homo sapiens, UniProt P43119); experiment: Receptor affinity, tritium-labeled iloprost binding to membranes of transfected COS-7 cells; details: COS-7 cell membranes
T6 construct: expressed in transfected cells; host or cells: COS-7
Description: as §1

Human EP4 [4] = biological target: T5, Human EP4; experiment: EP4 agonist activity, CRE-LUC reporter gene in transfected COS-7 cells; type: cell-based
Description: In brief, human EP4 gene and CRE-LUC reporter gene were transfected into COS-7 cells. The cells were treated with a test compound one day later, and incubated for 3 hr. The cells were washed, a luminescence substrate was added, and the luminescence intensity was measured for the agonist activity.

[5] = system: Human Platelet Aggregation; experiment: Inhibitory effect on ADP-induced platelet aggregation in platelet-rich plasma; type: cell-based; details: ADP 10 µmol/L, geometric mean of three volunteers
Description: The inhibitory effect of compounds F and J, and carboxylate forms thereof on platelet aggregation was evaluated. The carboxylate forms were prepared by separating and purifying the compound synthesized in Example 15 with a column. Blood was drawn from 3 healthy volunteers using sodium citrate as an anticoagulant, and platelet-rich plasma was prepared. The platelet-rich plasma was treated with physiological saline or test compounds and, 2 min later, platelet aggregation was induced with adenosine diphosphate (ADP, final concentration 10 µmol/L) and recorded with a platelet aggregation measurement apparatus (nephelometry).

IL-2 = experiment: Suppressive effect on cytokine production, CD4 positive T cells stimulated with anti-CD3 and anti-CD28 antibody, ELISA; type: cell-based; details: human CD4 positive T cells, anti-CD3/anti-CD28, 24 hr; geometric mean of three volunteers
Description: (§3) Blood was collected from 3 healthy volunteers, and CD4 positive T cells were prepared. […] In both cases, the test compound was added 30 min before stimulation.

TNF-α = experiment: as above; type: cell-based; details: human CD4 positive T cells, anti-CD3/anti-CD28, 24 hr; geometric mean of three volunteers
Description: as §3

IP-10 = experiment: Suppressive effect on cytokine production, whole blood stimulated with lipopolysaccharide, ELISA; type: cell-based; details: human whole blood, indometacin, 48 hr, geometric mean of three volunteers
[6] = system: blood pressure and heart rate; experiment: Effect on blood pressure and heart rate in mice; type: in vivo, ICR mice; details: intravenous 0.01 mg/5 mL/kg, isoflurane anesthesia
Description: Male ICR mice (5 weeks old, Japan SLC) were purchased, acclimated for 6 days and used for the test. The animals were treated and measured under isoflurane inhalation anesthesia (anesthesia introduced at 2.5%, maintained at 1.8-2.1%), while body temperature was kept at 37°C with a Heat Controller (ATC-402, Unique Medical Co., Ltd.). A catheter for administration of test compounds was inserted into the left femoral vein, and another catheter was inserted into the right femoral artery and connected to a pressure transducer to record each parameter of hemodynamics.
Compound F, the carboxylate form of compound F and BPS were intravenously administered at a dose of 0.01 mg/5 mL/kg, and the effect on the mean blood pressure and heart rate was evaluated with computer software for the analysis of hemodynamics (Fluclet, Dainippon Sumitomo Pharma Co., Ltd.). To the control group was intravenously administered a solvent (1.2% ethanol solution) at 5 mL/kg in the same manner. The results are expressed as a ratio of change in each parameter before and after the drug administration. Three to 6 animals were used for each group, and the results were expressed as average ± standard deviation.

[7] = system: dextran sodium sulfate-induced colitis; experiment: Dextran sodium sulfate-induced colitis model in mice (C57BL/6); type: in vivo; details: C57BL/6 mice, DSS, oral 0.3 mg/kg once a day
Description: Female C57BL/6 mice (6 weeks old, Japan SLC) were purchased, acclimated for 1 week and used for the study. Except the normal group, the mice were allowed to freely drink a 3 or 2 w/v% DSS (MP Biochemicals, Lot No. 5653H and 5464H, respectively) solution for 1 week to induce colitis. BPS at a dose of 0.3 mg/kg and compound F at doses of 0.3 and 1 mg/kg were orally administered once a day, daily, from the start day of DSS drinking (day 0) to one day before autopsy (day 9). To the control group was orally administered a solvent (1 vol% ethanol solution) at 10 mL/kg in the same manner. The consistency of the stool was graded from score 0 to 4, with normal (0), partly loose stool (1), loose stool (2) and diarrhea (4). The blood feces was also graded from score 0 to 4, with normal (0), partly blood feces (1), blood feces (2) and blood feces plus proctorrhagia (4). The sum of both grades was defined as the stool score (maximum 8). Furthermore, the length of the large intestine was measured in the same manner as in Example 23. Six to 10 animals were used for each group, and the results are shown in average ± standard deviation.

T5 sequence (P35408 whole entry): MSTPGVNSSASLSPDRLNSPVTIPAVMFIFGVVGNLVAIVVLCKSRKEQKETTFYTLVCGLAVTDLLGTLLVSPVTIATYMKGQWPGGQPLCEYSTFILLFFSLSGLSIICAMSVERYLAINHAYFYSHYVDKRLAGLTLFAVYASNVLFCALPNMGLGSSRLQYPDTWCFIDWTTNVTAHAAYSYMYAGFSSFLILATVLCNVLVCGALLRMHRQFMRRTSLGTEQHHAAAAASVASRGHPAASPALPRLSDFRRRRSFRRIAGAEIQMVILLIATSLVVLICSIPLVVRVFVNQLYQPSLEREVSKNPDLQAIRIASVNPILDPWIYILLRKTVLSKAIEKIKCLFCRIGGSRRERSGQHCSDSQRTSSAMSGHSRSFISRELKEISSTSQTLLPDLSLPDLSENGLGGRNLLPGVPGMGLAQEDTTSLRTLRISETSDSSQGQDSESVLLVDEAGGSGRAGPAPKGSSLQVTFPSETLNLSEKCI
T2 sequence (P43116 whole entry): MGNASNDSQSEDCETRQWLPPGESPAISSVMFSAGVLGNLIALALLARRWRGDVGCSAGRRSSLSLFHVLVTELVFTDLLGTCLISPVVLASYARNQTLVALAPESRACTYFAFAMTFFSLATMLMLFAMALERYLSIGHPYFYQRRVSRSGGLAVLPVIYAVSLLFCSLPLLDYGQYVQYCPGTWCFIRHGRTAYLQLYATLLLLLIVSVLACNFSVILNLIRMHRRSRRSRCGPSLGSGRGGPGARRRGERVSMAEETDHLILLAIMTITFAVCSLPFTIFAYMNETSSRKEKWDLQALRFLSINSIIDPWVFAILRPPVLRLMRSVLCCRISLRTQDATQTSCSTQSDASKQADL
T6 sequence (P43119 whole entry): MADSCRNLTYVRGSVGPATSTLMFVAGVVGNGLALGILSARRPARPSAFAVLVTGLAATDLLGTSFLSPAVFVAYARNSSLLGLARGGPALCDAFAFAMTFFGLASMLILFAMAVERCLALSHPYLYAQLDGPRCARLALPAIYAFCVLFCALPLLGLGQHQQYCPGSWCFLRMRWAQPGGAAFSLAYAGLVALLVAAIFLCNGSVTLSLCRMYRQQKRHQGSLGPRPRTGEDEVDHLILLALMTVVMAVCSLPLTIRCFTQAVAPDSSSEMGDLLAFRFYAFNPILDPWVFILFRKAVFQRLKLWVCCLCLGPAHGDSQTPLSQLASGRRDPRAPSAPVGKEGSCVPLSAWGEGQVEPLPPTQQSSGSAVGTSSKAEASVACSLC
T3 sequence (P32240 whole entry): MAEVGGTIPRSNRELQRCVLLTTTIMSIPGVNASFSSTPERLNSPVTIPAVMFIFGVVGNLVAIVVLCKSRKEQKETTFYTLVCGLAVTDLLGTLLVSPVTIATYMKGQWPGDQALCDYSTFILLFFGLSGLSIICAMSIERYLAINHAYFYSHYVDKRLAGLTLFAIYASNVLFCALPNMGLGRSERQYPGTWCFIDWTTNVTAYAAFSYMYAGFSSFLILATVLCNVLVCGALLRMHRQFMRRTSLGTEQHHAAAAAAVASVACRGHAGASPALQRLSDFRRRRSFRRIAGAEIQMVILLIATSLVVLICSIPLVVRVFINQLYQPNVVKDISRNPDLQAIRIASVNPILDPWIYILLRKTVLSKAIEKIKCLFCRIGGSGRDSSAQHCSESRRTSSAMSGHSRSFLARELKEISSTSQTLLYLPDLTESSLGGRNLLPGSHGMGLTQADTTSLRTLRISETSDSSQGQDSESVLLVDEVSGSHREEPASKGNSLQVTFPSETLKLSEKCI

Row | Compound | Residual ratio [1] [%] | half-life ([2]; iv, 50 ug/kg) [h] | half-life ([2]; rats, intravenous, summary of Table 3) [h] | Ki (Human EP1) [nM] | Ki (Human EP2) [nM] | Ki (Mouse EP4) [nM] | Ki (Human EP3) [nM] | Ki (Human EP4 [3]) [nM] | affinity for binding to human EP4 higher than that to human IP (Human EP4 [3]; ratio of Ki values) [fold] | Ki (Human IP) [nM] | EC50 (Human EP4 [4]) [nM] | IC50 [5] [nM] | IC50 (IL-2) [nM] | IC50 (TNF-α) [nM] | IC50 (IP-10) [nM] | effect on heart rate [6] | maximum decrease ratio of mean blood pressure [6] [%] | effect on stool score [7] | effect on the shortening of the large intestine [7]
1 | Cc1cccc([C@H](C)[C@H](O)/C=C/[C@@H]2[C@@H]3[C@H](C[C@H]2O)O/C(=C\CCCc2nnn[nH]2)C3(F)F)c1 [Compound J, 4-[(Z)-(1S,5R,6R,7R)-6-[(1E,3R,4S)-3-hydroxy-4-(m-tolyl)-1-pentenyl]-7-hydroxy-2-oxa-4,4-difluoro-bicyclo[3.3.0]octan-3-ylidene]-1-(tetrazol-5-yl)butane] | 90.1±6.9 | 1.28 ± 0.317 | 1 to 2 | 4600 | 5400 | 590 | 1500 | 83 | 40 | 3400 | 440 | 2720 | 64 | 89.5 | 102 | – | – | – | –
2 | CCCCC[C@H](O)/C=C/[C@H]1[C@H](O)CC(=O)[C@@H]1C/C=C\CCCC(=O)O [PGE2, reference compound] | – | – | – | 2.9 | – | – | – | – | – | – | – | – | 0.062 | – | – | – | – | – | –
3 | CC#CCC(C)[C@H](O)/C=C/[C@@H]1[C@H]2c3cccc(CCCC(=O)O)c3O[C@H]2C[C@H]1O (mixture of isomers) [BPS, beraprost sodium, reference compound] | – | – | – | 942 | 4990 | – | 946 | 6150 | – | 160 | > 1000 | 36 | – | – | – | on the increase and remained high even after 10 min | 38 | not effective, but rather showed a tendency toward aggravation of the stool score | no effect on the shortening of the large intestine
